The target in one data set is T1, mouse DGAT1 (Mus musculus, UniProt Q9Z2A7).
T1 construct: made in house; host or cells: insect cells (High Five, Sf9, Sf21, etc.), baculovirus expression system (Invitrogen)
T1 sequence (Q9Z2A7 1-498): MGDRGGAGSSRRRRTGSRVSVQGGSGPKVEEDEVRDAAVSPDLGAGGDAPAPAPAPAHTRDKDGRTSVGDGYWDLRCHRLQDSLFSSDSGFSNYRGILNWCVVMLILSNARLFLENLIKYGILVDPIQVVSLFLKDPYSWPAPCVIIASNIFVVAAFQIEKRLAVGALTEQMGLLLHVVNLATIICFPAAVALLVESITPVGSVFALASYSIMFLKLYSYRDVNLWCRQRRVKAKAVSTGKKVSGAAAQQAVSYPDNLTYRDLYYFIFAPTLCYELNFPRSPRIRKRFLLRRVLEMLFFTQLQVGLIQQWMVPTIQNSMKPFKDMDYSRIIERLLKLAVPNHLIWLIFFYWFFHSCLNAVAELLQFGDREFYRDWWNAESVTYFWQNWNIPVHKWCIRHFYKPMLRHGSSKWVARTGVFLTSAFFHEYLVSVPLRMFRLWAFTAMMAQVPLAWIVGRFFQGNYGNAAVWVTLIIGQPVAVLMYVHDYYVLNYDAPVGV
Briefly: DGAT1 inhibitory effect test (microsome fraction, [14C]-oleoyl-CoA, triglyceride radioactivity by TLC). It is filed as biochemical. As to conditions: 0.5 h; concentration of the test compound 0.1 μg/ml; mouse DGAT1 microsomes, 23° C., 30 minutes; read-out: Inhibitory ratio. Summed up:
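Baculovirus-expressed mouse DGAT1 insect-cell microsomes (10 μg) were incubated 30 min at 23 °C, pH 8.0, with 0.5 mM 1,2-dioleoyl-sn-glycerol, 30 μM [14C]-oleoyl-CoA and 0.5% Triton X-100. [14C]-triglyceride was quantified after heptane extraction and TLC. Percent inhibition was taken against vehicle control, with 0-min background subtracted.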

In general, melting point refers to the temperature, or range, at which the solid turns liquid.

The structures appear in SMILES notation. A value given as a limit tells only on which side of the number the result lay.

Compound `COc1cc(NC(=O)Nc2ccc(C3=CCN(C(=O)Nc4ccc(OCC(O)CO)cc4Cl)CC3)cc2)cc(OC)c1` (centres unmarked) [Example 287, 4-{4-[3-(3,5-dimethoxy-phenyl)-ureido]-phenyl}-3,6-dihydro-2H-pyridine-1-carboxylic acid [2-chloro-4-(2,3-dihydroxy-propoxy)-phenyl]-amide] returned a melting point of 108 to 111 °C. Besides, on mouse DGAT1, the inhibition at 0.1 µg/mL was ≥ 50%.

As to `COc1ccccc1NC(=O)Nc1ccc(C2CCN(C(=O)Nc3ccc(OCC(O)CO)cc3Cl)CC2)cc1` (centres unmarked) [Example 288, 4-{4-[3-(2-methoxy-phenyl)-ureido]-phenyl}-piperidine-1-carboxylic acid [2-chloro-4-(2,3-dihydroxy-propoxy)-phenyl]-amide], the melting point fell in the range of 158 to 161 °C. Further, the inhibition at 0.1 µg/mL on mouse DGAT1 is ≥ 50%.

On to `COc1cc(NC(=O)Nc2ccc(C3CCN(C(=O)Nc4ccc(OCC(O)CO)cc4Cl)CC3)cc2)cc(OC)c1` (centres unmarked) [Example 289, 4-{4-[3-(3,5-dimethoxy-phenyl)-ureido]-phenyl}-piperidine-1-carboxylic acid [2-chloro-4-(2,3-dihydroxy-propoxy)-phenyl]-amide], for which the melting point was in the range of 105 to 108 °C. Besides, the inhibition at 0.1 µg/mL at mouse DGAT1 is ≥ 50%.

On to `O=C(Nc1ccc2c(c1)CCN(C(=O)Nc1ccc(OCC(O)CO)cc1Cl)C2)Nc1ccccc1F` (centres unmarked) [Example 290, 6-[3-(2-fluoro-phenyl)-ureido]-3,4-dihydro-1H-isoquinoline-2-carboxylic acid [2-chloro-4-(2,3-dihydroxy-propoxy)-phenyl]-amide], for which the melting point lay within 164 to 167 °C. Moreover, the inhibition at 0.1 µg/mL on mouse DGAT1 is ≥ 50%.

For the compound `CCOc1cccc(NC(=O)Nc2ccc3c(c2)CCN(C(=O)Nc2ccc(OCC(O)CO)cc2Cl)C3)c1` (centres unmarked) [Example 291, 6-[3-(3-ethoxy-phenyl)-ureido]-3,4-dihydro-1H-isoquinoline-2-carboxylic acid [2-chloro-4-(2,3-dihydroxy-propoxy)-phenyl]-amide], the melting point lay in the range of 134 to 139 °C. For the same compound, the inhibition at 0.1 µg/mL at mouse DGAT1 was ≥ 50%.

`O=C(Nc1ccc(C2CCN(C(=O)Nc3ccc(OCC(O)CO)cc3Cl)CC2)cc1)Nc1ccccc1F` (centres unmarked) [Example 292, 4-{4-[3-(2-fluoro-phenyl)-ureido]-phenyl}-piperidine-1-carboxylic acid [2-chloro-4-(2,3-dihydroxy-propoxy)-phenyl]-amide] came in with a melting point of 170 to 175 °C. The inhibition at 0.1 µg/mL at mouse DGAT1 was ≥ 50%.

Take `COc1ccc(C)cc1NC(=O)Nc1ccc2c(c1)CCN(C(=O)Nc1ccc(OCC(O)CO)cc1C(F)(F)F)C2` (centres unmarked) [Example 293, 6-[3-(2-methoxy-5-methyl-phenyl)-ureido]-3,4-dihydro-1H-isoquinoline-2-carboxylic acid [4-(2,3-dihydroxy-propoxy)-2-trifluoromethyl-phenyl]-amide]: the melting point is 174 to 176 °C. The inhibition at 0.1 µg/mL on mouse DGAT1 was ≥ 50%.

On to `COc1ccc(C)cc1NC(=O)Nc1ccc(N2CCN(C(=O)Nc3ncccc3C)CC2)cc1` [Example 294, 4-{4-[3-(2-methoxy-5-methyl-phenyl)-ureido]-phenyl}-piperazine-1-carboxylic acid (3-methyl-pyridin-2-yl)-amide], for which the melting point is 209 to 211 °C. The inhibition at 0.1 µg/mL at mouse DGAT1 is ≥ 50%.

For the compound `Cc1cccnc1NC(=O)N1CCN(c2ccc(NC(=O)Nc3ccccc3F)cc2)CC1` [Example 295, 4-{4-[3-(2-fluoro-phenyl)-ureido]-phenyl}-piperazine-1-carboxylic acid (3-methyl-pyridin-2-yl)-amide], the melting point is > 250 °C (dec.). Moreover, the inhibition at 0.1 µg/mL at mouse DGAT1 was ≥ 50%.

With `COc1ccc(F)cc1NC(=O)Nc1ccc(N2CCN(C(=O)Nc3ncccc3C)CC2)cc1` [Example 296, 4-{4-[3-(5-fluoro-2-methoxy-phenyl)-ureido]-phenyl}-piperazine-1-carboxylic acid (3-methyl-pyridin-2-yl)-amide], the melting point fell in the range of 206 to 208 °C. The inhibition at 0.1 µg/mL at mouse DGAT1 is ≥ 50%.

(Values after US20070249620A1, “Urea Derivative” (priority 2004, published 2007).)
